PubChem BioAssay AID224 (DTP/NCI, 2004)
Values joined by “and” are separate entries in the source; they are usually repeats but may differ in a detail not shown here. Equal values may be shown once. Toxic doses and inconclusive results are not listed.

Tested on: P335 leukemia ip, BDF1 mice, survival T/C %
Experiment: NCI In Vivo Anticancer Drug Screen. Data for tumor model P335 Leukemia (intraperitoneal) in B6D2F1 (BDF1) mice
Settings: endpoint: mean survival time, higher = longer survival
Experimental: The antitumor activity of compounds was measured in mice bearing transplantable tumors. Survival or tumor size were measured and the results are expressed as the measurement made in the treated group (T) divided by the measurement made in the vehicle treated control group (C). The tumor model used in this assay is P335 Leukemia (intraperitoneal) in B6D2F1 (BDF1) mice

[1] = dose: 1.6 mg/kg/injection, schedule: Q01DX Z (ip), vehicle: carboxymethylcellulose (CMC)
[2] = dose: 12.5 mg/kg/injection, schedule: Q01DX Z (ip), vehicle: carboxymethylcellulose (CMC)
[3] = dose: 50.0 mg/kg/injection, schedule: Q01DX Z (ip), vehicle: carboxymethylcellulose (CMC)
[4] = dose: 250.0 mg/kg/injection, schedule: Q01DX Z (ip), vehicle: saline
[5] = dose: 500.0 mg/kg/injection, schedule: Q01DX Z (ip), vehicle: saline
[6] = dose: 25.0 mg/kg/injection, schedule: Q01DX Z (ip), vehicle: carboxymethylcellulose (CMC)
[7] = dose: 100.0 mg/kg/injection, schedule: Q01DX Z (ip), vehicle: carboxymethylcellulose (CMC)
[8] = dose: 25.0 mg/kg/injection, schedule: Q01DX Z (ip), vehicle: water

## Cc1cc(N(CCCl)CCCl)ccc1N=Nc1ccccc1C(=O)O
dose: 0.12 mg/kg/injection, schedule: Q01DX Z (ip), vehicle: carboxymethylcellulose (CMC)
  T/C: 90 % of control
dose: 0.23 mg/kg/injection, schedule: Q01DX Z (ip), vehicle: carboxymethylcellulose (CMC)
  T/C: 106 % of control
dose: 0.47 mg/kg/injection, schedule: Q01DX Z (ip), vehicle: carboxymethylcellulose (CMC)
  T/C: 106 % of control
dose: 0.94 mg/kg/injection, schedule: Q01DX Z (ip), vehicle: carboxymethylcellulose (CMC)
  T/C: 94 % of control

## CCCCn1cnc2c(=S)nc[nH]c21
dose: 0.4 mg/kg/injection, schedule: Q01DX Z (ip), vehicle: carboxymethylcellulose (CMC)
  T/C: 89 % of control
dose: 0.8 mg/kg/injection, schedule: Q01DX Z (ip), vehicle: carboxymethylcellulose (CMC)
  T/C: 87 % of control
[1]
  T/C: 87 % of control

## CSc1ncnc2nc[nH]c12
[2]
  T/C: 96 % of control
[3]
  T/C: 90 % of control
dose: 50.0 mg/kg/injection, schedule: Q01DX Z (ip), vehicle: methylcellulose (MC)
  T/C: 87 % of control

## S=P(N1CC1)(N1CC1)N1CC1
dose: 0.37 mg/kg/injection, schedule: Q01DX Z (ip), vehicle: saline
  T/C: 107 % of control
dose: 0.75 mg/kg/injection, schedule: Q01DX Z (ip), vehicle: saline
  T/C: 109 % of control
dose: 1.5 mg/kg/injection, schedule: Q01DX Z (ip), vehicle: saline
  T/C: 104 % of control
dose: 3.0 mg/kg/injection, schedule: Q01DX Z (ip), vehicle: saline
  T/C: 112 % of control

## CC(=O)N(C)C
[4]
  T/C: 95 % of control
[5]
  T/C: 110 % of control
dose: 1000.0 mg/kg/injection, schedule: Q01DX Z (ip), vehicle: saline
  T/C: 92 % of control
dose: 2000.0 mg/kg/injection, schedule: Q01DX Z (ip), vehicle: saline
  T/C: 90 % of control

## CC(=O)[C@H]1CC[C@H]2[C@@H]3C[C@H](C)C4=CC(=O)CC[C@]4(C)[C@H]3C(=O)C[C@]12C
dose: 12.5 mg/kg/injection, schedule: Q01DX Z (sc), vehicle: steriod suspending solution
  T/C: 120 % of control
dose: 25.0 mg/kg/injection, schedule: Q01DX Z (sc), vehicle: steriod suspending solution
  T/C: 115 % of control
dose: 50.0 mg/kg/injection, schedule: Q01DX Z (sc), vehicle: steriod suspending solution
  T/C: 119 % of control and 124 % of control
dose: 100.0 mg/kg/injection, schedule: Q01DX Z (sc), vehicle: steriod suspending solution
  T/C: 107 % of control
dose: 200.0 mg/kg/injection, schedule: Q01DX Z (sc), vehicle: steriod suspending solution
  T/C: 100 % of control
dose: 400.0 mg/kg/injection, schedule: Q01DX Z (sc), vehicle: steriod suspending solution
  T/C: 88 % of control

## O=C(Nc1ccc(C2=NCCN2)cc1)c1cccc(C(=O)Nc2ccc(C3=NCCN3)cc2)c1
dose: 9.4 mg/kg/injection, schedule: Q01DX Z (ip), vehicle: carboxymethylcellulose (CMC)
  T/C: 98 % of control
dose: 18.75 mg/kg/injection, schedule: Q01DX Z (ip), vehicle: carboxymethylcellulose (CMC)
  T/C: 114 % of control
dose: 37.5 mg/kg/injection, schedule: Q01DX Z (ip), vehicle: carboxymethylcellulose (CMC)
  T/C: 123 % of control
dose: 75.0 mg/kg/injection, schedule: Q01DX Z (ip), vehicle: carboxymethylcellulose (CMC)
  T/C: 98 % of control

## O=C(Nc1ccc(C2=NCCN2)cc1)c1ccc(C(=O)Nc2ccc(C3=NCCN3)cc2)c(Cl)c1
dose: 3.75 mg/kg/injection, schedule: Q01DX Z (ip), vehicle: water
  T/C: 92 % of control
dose: 7.5 mg/kg/injection, schedule: Q01DX Z (ip), vehicle: water
  T/C: 120 % of control
dose: 15.0 mg/kg/injection, schedule: Q01DX Z (ip), vehicle: water
  T/C: 157 % of control
dose: 30.0 mg/kg/injection, schedule: Q01DX Z (ip), vehicle: water
  T/C: 156 % of control and 206 % of control
dose: 60.0 mg/kg/injection, schedule: Q01DX Z (ip), vehicle: water
  T/C: 86 % of control

## Cn1cnc([N+](=O)[O-])c1Sc1nc(N)nc2nc[nH]c12
dose: 0.25 mg/kg/injection, schedule: Q01DX Z (ip), vehicle: carboxymethylcellulose (CMC)
  T/C: 93 % of control

## C[C@@H]1C[C@H]2CC[C@H](O2)[C@H](C)C(=O)O[C@@H](C)C[C@@H]2CC[C@@H](O2)[C@@H](C)C(=O)O[C@H](C)C[C@H]2CC[C@H](O2)[C@H](C)C(=O)O[C@@H](C)C[C@@H]2CC[C@@H](O2)[C@@H](C)C(=O)O1
[6]
  T/C: 96 % of control
[3]
  T/C: 88 % of control
[7]
  T/C: 86 % of control

## O=c1cn[nH]c(=O)[nH]1
dose: 187.5 mg/kg/injection, schedule: Q01DX Z (ip), vehicle: carboxymethylcellulose (CMC)
  T/C: 88 % of control
dose: 375.0 mg/kg/injection, schedule: Q01DX Z (ip), vehicle: carboxymethylcellulose (CMC)
  T/C: 88 % of control
dose: 750.0 mg/kg/injection, schedule: Q01DX Z (ip), vehicle: carboxymethylcellulose (CMC)
  T/C: 98 % of control

## S=P(N1CCOCC1)(N1CC1)N1CC1
[2]
  T/C: 101 % of control
[6]
  T/C: 93 % of control

## COS(C)(=O)=O
[8]
  T/C: 87 % of control
dose: 50.0 mg/kg/injection, schedule: Q01DX Z (ip), vehicle: water
  T/C: 101 % of control
dose: 100.0 mg/kg/injection, schedule: Q01DX Z (ip), vehicle: water
  T/C: 101 % of control

## O=C(Nc1ccc(C2=NCCCN2)cc1)c1ccc(C(=O)Nc2ccc(C3=NCCCN3)cc2)cc1
dose: 0.4 mg/kg/injection, schedule: Q01DX Z (ip), vehicle: water
  T/C: 98 % of control
dose: 1.6 mg/kg/injection, schedule: Q01DX Z (ip), vehicle: water
  T/C: 154 % of control
dose: 3.1 mg/kg/injection, schedule: Q01DX Z (ip), vehicle: water
  T/C: 207 % of control

## CSCS(=O)C[C@H](CO)NC(=O)/C=C/c1c(C)[nH]c(=O)[nH]c1=O (some centres undefined)
dose: 0.12 mg/kg/injection, schedule: Q01DX Z (ip), vehicle: saline
  T/C: 100 % of control
dose: 0.25 mg/kg/injection, schedule: Q01DX Z (ip), vehicle: saline
  T/C: 107 % of control
dose: 0.5 mg/kg/injection, schedule: Q01DX Z (ip), vehicle: saline
  T/C: 105 % of control
dose: 1.0 mg/kg/injection, schedule: Q01DX Z (ip), vehicle: saline
  T/C: 110 % of control

## CN(C)c1ccc(/C=C/c2ccnc3ccccc23)cc1
[1]
  T/C: 94 % of control
dose: 3.1 mg/kg/injection, schedule: Q01DX Z (ip), vehicle: carboxymethylcellulose (CMC)
  T/C: 89 % of control
dose: 6.2 mg/kg/injection, schedule: Q01DX Z (ip), vehicle: water
  T/C: 100 % of control
dose: 6.25 mg/kg/injection, schedule: Q01DX Z (ip), vehicle: carboxymethylcellulose (CMC)
  T/C: 90 % of control and 105 % of control
dose: 12.5 mg/kg/injection, schedule: Q01DX Z (ip), vehicle: water
  T/C: 95 % of control
[8]
  T/C: 92 % of control
[3]
  T/C: 118 % of control

## CCOC(N)=O
dose: 63.0 mg/kg/injection, schedule: Q01DX Z (ip), vehicle: saline
  T/C: 95 % of control
dose: 93.75 mg/kg/injection, schedule: Q01DX Z (ip), vehicle: saline
  T/C: 109 % of control
dose: 125.0 mg/kg/injection, schedule: Q01DX Z (ip), vehicle: saline
  T/C: 108 % of control
[4]
  T/C: 95 % of control
[5]
  T/C: 112 % of control

## CS(=O)(=O)OCC(O)C(O)COS(C)(=O)=O (centres undefined)
dose: 187.5 mg/kg/injection, schedule: Q01DX Z (ip), vehicle: saline
  T/C: 96 % of control
dose: 375.0 mg/kg/injection, schedule: Q01DX Z (ip), vehicle: saline
  T/C: 111 % of control
dose: 750.0 mg/kg/injection, schedule: Q01DX Z (ip), vehicle: saline
  T/C: 102 % of control

## OCC1OC(n2cnc3c(Cl)ncnc32)C(O)C1O (centres undefined)
dose: 7.8 mg/kg/injection, schedule: Q01DX Z (ip), vehicle: carboxymethylcellulose (CMC)
  T/C: 101 % of control
dose: 15.6 mg/kg/injection, schedule: Q01DX Z (ip), vehicle: carboxymethylcellulose (CMC)
  T/C: 105 % of control

## O=c1[nH]c(=O)n(C2CC(O)C(CO)O2)cc1I (centres undefined)
dose: 225.0 mg/kg/injection, schedule: Q01DX Z (ip), vehicle: carboxymethylcellulose (CMC)
  T/C: 93 % of control
dose: 450.0 mg/kg/injection, schedule: Q01DX Z (ip), vehicle: carboxymethylcellulose (CMC)
  T/C: 104 % of control

## N#CCSc1ncnc2nc[nH]c12
[3]
  T/C: 93 % of control
[7]
  T/C: 93 % of control
dose: 200.0 mg/kg/injection, schedule: Q01DX Z (ip), vehicle: methylcellulose (MC)
  T/C: 91 % of control

## CC(=O)OCC1OC(n2ncc(=O)[nH]c2=O)C(OC(C)=O)C1OC(C)=O (centres undefined)
dose: 25.0 mg/kg/injection, schedule: Q01DX Z (ip), vehicle: other
  T/C: 120 % of control
dose: 50.0 mg/kg/injection, schedule: Q01DX Z (ip), vehicle: other
  T/C: 109 % of control
dose: 99.0 mg/kg/injection, schedule: Q01DX Z (ip), vehicle: other
  T/C: 114 % of control
dose: 187.5 mg/kg/injection, schedule: Q01DX Z (ip), vehicle: other
  T/C: 124 % of control
dose: 188.0 mg/kg/injection, schedule: Q01DX Z (ip), vehicle: other
  T/C: 114 % of control
